# Experimental data taken from patent publication US8119660B2, “Small-molecule inhibitors of the androgen receptor” (The Regents of the University of California, priority 2007, dated 2012).
# “Also recorded” adds a separate entry of the source. Where a name gives a salt, the structure may show the parent alone.
# Columns and labels:
# [1] = Pharmacokinetics in mice, drug levels by mass spectrometry; type: in vivo; details: for concentration at […]: 0.25 hr
# From the text: Serum samples were obtained at fixed time intervals, and the drug levels determined by mass spectrometry.
# [2] = tested on: LNCaP cells; test: Cell proliferation (DNA content, DAPI), LNCaP; type: cell-based, human; details: 3 nM DHT, seven days, PP 100 nM, HH 100 nM, BiC 1 μM, hydrochloride
# From the text: (§1) LN-AR cells were created by retroviral infection of a high-expressing AR vector into LNCaP cells, and proliferate independent of androgen in cell culture, unlike their parental line (Chen, C. D., et al., Molecular determinants of resistance to antiandrogen therapy. Nat Med, 2004. 10(1): p. 33-9). HEK293 cells were used as a control. Cells were transferred to charcoal-stripped media two days before they were split and plated in quadruplicate at a density of approximately 20,000 cells/well in 48-well plates. […] Media were changed every day, using a single preparation to ensure consistent compound concentrations. Proliferation was determined by measuring the DNA content of the cells in each well. Each day, the cells in four wells were fixed in 100% cold methanol, followed by staining for 5 min at RT with 0.2 ng/mL 4′,6-diamidino-2-phenylindole (DAPI) in PBS. The cells were washed once in PBS, then read on a fluorescence plate reader using 365/439 excitation/emission wavelengths. LAPC4 and LNCaP cells proliferated to a much greater degree in the presence of DHT, while LN-AR cells proliferated in the presence and absence of DHT.
# [3] = tested on: LAPC4 cells; test: Cell proliferation (DNA content, DAPI), LAPC4; type: cell-based, human; details: LAPC4, 3 nM DHT, seven days; PP 100 nM, HH 100 nM, BiC 1 μM
# From the text: as §1
# [4] = tested on: HEK293 cells; test: Cell proliferation (DNA content, DAPI), HEK293 control; type: cell-based; details: HEK293, seven days; PP 100 nM, HH 100 nM, BiC 1 μM
# From the text: as §1
# [5] = biological target: T1, endogenous wild-type AR, LAPC4 cells (Homo sapiens, UniProt P10275); test: PSA-luciferase reporter assay in LAPC4 cells with DHT; type: cell-based; details: 3 nM DHT
# T1 construct: that each express endogenous AR; endogenous in cells; host or cells: LAPC4
# T1 sequence (P10275 1-920): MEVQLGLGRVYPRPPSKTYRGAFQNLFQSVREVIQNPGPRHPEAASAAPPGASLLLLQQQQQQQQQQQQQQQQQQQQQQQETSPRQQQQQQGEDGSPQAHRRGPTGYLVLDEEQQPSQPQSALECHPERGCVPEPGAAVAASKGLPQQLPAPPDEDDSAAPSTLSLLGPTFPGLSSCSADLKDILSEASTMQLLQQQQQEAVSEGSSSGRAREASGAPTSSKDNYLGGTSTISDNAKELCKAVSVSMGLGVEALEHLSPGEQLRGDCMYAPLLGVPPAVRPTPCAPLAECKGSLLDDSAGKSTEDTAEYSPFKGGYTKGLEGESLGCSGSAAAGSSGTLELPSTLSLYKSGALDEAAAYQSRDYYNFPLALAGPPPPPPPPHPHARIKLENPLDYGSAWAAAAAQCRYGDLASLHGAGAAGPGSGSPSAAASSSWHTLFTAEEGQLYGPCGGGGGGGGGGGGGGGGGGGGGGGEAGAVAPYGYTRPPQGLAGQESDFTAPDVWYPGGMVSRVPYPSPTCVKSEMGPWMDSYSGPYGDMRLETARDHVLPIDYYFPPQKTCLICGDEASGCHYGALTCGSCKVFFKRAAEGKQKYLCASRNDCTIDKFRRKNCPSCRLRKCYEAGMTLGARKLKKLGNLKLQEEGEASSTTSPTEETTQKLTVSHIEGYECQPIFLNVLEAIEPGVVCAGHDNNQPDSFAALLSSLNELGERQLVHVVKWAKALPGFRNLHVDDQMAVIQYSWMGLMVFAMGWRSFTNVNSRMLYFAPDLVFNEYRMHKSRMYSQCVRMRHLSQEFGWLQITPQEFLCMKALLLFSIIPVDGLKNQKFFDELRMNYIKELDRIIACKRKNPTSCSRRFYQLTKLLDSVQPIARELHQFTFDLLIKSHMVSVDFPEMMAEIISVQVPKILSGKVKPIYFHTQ
# Method: Cells were transfected with two reporter plasmids, a PSA-luciferase construct (androgen responsive), and an SV40-renilla luciferase construct as an internal control. The following day, the cells were split and drugs added in the presence of 3 nM DHT. Luciferase production was measured the following day (Dual luciferase assay kit, Promega).
# Synergism can be defined as a combination index of less than one, using the non-exclusive assumption described by Chou et al. (Chou, T. C. and P. Talalay, Quantitative analysis of dose-effect relationships: the combined effects of multiple drugs or enzyme inhibitors. Adv Enzyme Regul, 1984. 22: p. 27-55).
smiles,measurement,setting,value
"Cc1nccc2c1[nH]c1cc(O)ccc12 [HH, harmol hydrochloride]",concentration at […],"[1]; FVB, mouse, plasma, mice, IP, 5 mg/kg single dose",32.3 ng/mL
same,concentration at 1 h,"[1]; FVB, mouse, plasma, mice, IP, 5 mg/kg single dose, 1 hr",5 ng/mL
same,concentration at […],"[1]; FVB, mouse, plasma, mice, PO, 5 mg/kg single dose",6.7 ng/mL
same,Clearance / half-life in words,"[1]; Wild-type FVB mice, single intraperitoneal injection",rapidly cleared
same,Inhibition of cell growth,[2],inhibited significantly; also recorded: exhibited growth-inhibitory properties
same,Inhibition of cell growth,[3],not effective
same,Non-specific growth inhibition of control cells,[4],Neither compound exhibited non-specific growth inhibition
same,IC50,[5],106 nM
